How the values were obtained:
Type in all cases: in vivo
Füllinsdorfer Ratten = experiment: Conflict test in rats (single-lever Skinner box, food pellet reward combined with foot shock); conditions: Rattus norvegicus; female rats, by gavage half an hour before the one-hour main test, Wilcoxon test vs. saline pretreatment; read-out: erste signifikant anxiolytisch wirksame Dosis
Procedure: Die Testapparatur ist eine Eintasten-Skinnerbox mit Futterpillengeber.
Während 3 einstündigen Vorversuchen (an drei verschiedenen Tagen) werden hungrige weibliche Füllinsdorfer Ratten (SPF, 190-230 g) darauf trainiert, die Tast des Futterpillengebers zu drücken, um Futterpillen von je 45 mg zu erhalten (jeder Tastendruck wird belohnt); im dritten Vorversuch erreichen die Ratten eine Rate von 150-200 Tastenbetätigungen pro Stunde.
In einem vierten Vorversuch wird jede durch Tastendruck hervorgerufene Pillenbelohnung mit einem kurzen elektrischen Fuss-Schock (1,0 mA) kombiniert. Die Ratten, welche mit dieser Konflikt-Situation konfrontiert sind, betätigen anfangs noch etwa 5-10mal die Drucktaste und hören dann aus Angst gänzlich auf.
In einem fünften Vorversuch können die Ratten die Taste des Futterpillengebers wieder ohne zusätzlichen Fuss-Schock drücken, wobei wiederum eine Rate von 150-200 Tastenbetätigungen pro Stunde erreicht wird.
In einem sechsten Vorversuch wird eine Selektion der Testtiere durchgeführt. Den Testtieren werden eine halbe Stunde vor Beginn dieses Vorversuches peroral 10 mg/kg Chlordiazepoxid verabreicht; jede Pillenbelohnung wird wiederum mit einem Fuss-Schock kombiniert (Konflikt). Nur Ratten, die in diesem Vorversuch eine Rate von 20-50 Tastenbetätigungen erreichen (vgl. die 5-10 Tastenbetätigungen im vierten Vorversuch) werden als geeignete Testtiere für die Prüfung von potentiellen Anxiolytika behalten. Die Eliminationsrate in diesem Vorversuch beträgt 5%.
Im Hauptversuch werden zur Prüfung der potentiellen Anxiolytika pro Substanz und pro Dosis in der Regel 8 Ratten eingesetzt. Eine unbehandelte Kontrollgruppe ist nicht erforderlich, da jedes Tier als seine eigene Kontrolle dient. Die Testsubstanzen, welche in einem Gemisch von destilliertem Wasser (10 ml) und Tween 80 (2 Tropfen) gelöst oder suspendiert sind, werden den Tieren mit Hilfe einer Schlundsonde eine halbe Stunde vor dem einstündigen Hauptversuch verabreicht. […]

Maus [1] = experiment: Chimney test; conditions: Kamintest, bis zu einer Dosis von 300 mg/kg
Text: (§1) Bei den oben genannten Versuchen handelt es sich um allgemein bekannte Standardmethoden zur Bestimmung von sedierender und muskelrelaxierender Wirkung.

Maus [2] = experiment: 3-Mercaptopropionic acid test; conditions: Mus musculus, 3-Mercaptopropionsäure-Test
Text: as §1

Maus [3] = experiment: Maximal electroshock test; conditions: Mus musculus, maximaler Elektroschock
Maus [4] = experiment: Antipentetrazole test; conditions: Antipentetrazoltest, bis zu einer Dosis von 300 mg/kg
Text: as §1

Maus [5] = experiment: Rotating rod test; conditions: Versuch am Rotierstab, bis zu einer Dosis von 300 mg/kg
Text: as §1

SMILES | minimal effective dose (Füllinsdorfer Ratten) [mg/kg] | Aktivität (Maus [1]) | ED50 (Maus [2]) [mg/kg] | ED50 (Maus [3]) [mg/kg] | Aktivität (Maus [4]) | Aktivität (Maus [5])
CN1CC(=O)N=C1NC(=O)Nc1cccs1 [1-(1-Methyl-4-oxo-2-imidazolin-2-yl)-3-(2-thienyl)harnstoff] | 30 |  |  |  |  | 
CN1CC(=O)N=C1NC(=O)Nc1ccsc1 [1-(1-Methyl-4-oxo-2-imidazolin-2-yl)-3-(3-thienyl)harnstoff] | 10 |  |  |  |  | 
CN1CC(=O)N=C1NC(=O)Nc1csc(Cl)c1 [1-(5-Chlor-3-thienyl)-3-(1-methyl-4-oxo-2-imidazolin-2-yl)harnstoff] | 3 | keinerlei Aktivität | 76 | > 100 | keinerlei Aktivität | keinerlei Aktivität

Source: patent EP0016371A1, “Urea derivatives, process and intermediates for their preparation, medicaments containing such a urea derivative and its therapeutical use” (F. HOFFMANN-LA ROCHE & CO. Aktiengesellschaft, priority 1979, dated 1980)
